Measurements: PubChem BioAssay (NCI)
Where “and” joins values, the source holds several entries; their conditions need not be identical. Equal values may be shown once.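 Briefly, cells in 96-well plates were exposed to five compound concentrations for 48 h, and endpoints were estimated by linear interpolation. At the GI50, growth is halved. At the TGI there is no net growth.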

Columns and labels:
Assay in all cases: inhibition of tumour cell growth, NCI panel, 48 h
[1] = test system: 786-0 renal
[2] = test system: A498 renal
[3] = test system: A549 NSCLC
[4] = test system: ACHN renal
[5] = test system: CAKI-1 renal
[6] = test system: COLO 205 colon
[7] = test system: DLD-1 colon
[8] = test system: DMS 114 small cell lung
[9] = test system: DMS 273 small cell lung
[10] = test system: HCC-2998 colon
[11] = test system: HCT-116 colon
[12] = test system: HCT-15 colon
[13] = test system: HOP-18 NSCLC
[14] = test system: HOP-62 NSCLC
[15] = test system: HOP-92 NSCLC
[16] = test system: HT29 colon
[17] = test system: IGROV1 ovarian
[18] = test system: K-562 leukemia
[19] = test system: KM12 colon
[20] = test system: KM20L2 colon
[21] = test system: LOX IMVI melanoma
[22] = test system: LXFL 529 NSCLC
[23] = test system: M14 melanoma
[24] = test system: M19-MEL melanoma
[25] = test system: MALME-3M melanoma
[26] = test system: MOLT-4 leukemia
[27] = test system: NCI-H226 lung
[28] = test system: NCI-H23 lung
[29] = test system: NCI-H460 lung
[30] = test system: OVCAR-3 ovarian
[31] = test system: OVCAR-4 ovarian
[32] = test system: OVCAR-5 ovarian
[33] = test system: OVCAR-8 ovarian
[34] = test system: RPMI-8226 leukemia
[35] = test system: RXF 393 renal
[36] = test system: RXF-631 renal
[37] = test system: SF-268 CNS
[38] = test system: SF-295 CNS
[39] = test system: SF-539 CNS
[40] = test system: SK-MEL-28 melanoma
[41] = test system: SK-MEL-5 melanoma
[42] = test system: SK-OV-3 ovarian
[43] = test system: SN12C renal
[44] = test system: SNB-19 CNS
[45] = test system: SNB-75 CNS
[46] = test system: SNB-78 CNS
[47] = test system: SR leukemia
[48] = test system: SW-620 colon
[49] = test system: TK-10 renal
[50] = test system: U251 CNS
[51] = test system: UACC-257 melanoma
[52] = test system: UACC-62 melanoma
[53] = test system: UO-31 renal
[54] = test system: XF 498 CNS
[55] = test system: CCRF-CEM leukemia
[56] = test system: EKVX NSCLC
[57] = test system: HL-60(TB) leukemia
[58] = test system: NCI-H522 lung
[59] = test system: SK-MEL-2 melanoma
[60] = test system: BT-549 breast
[61] = test system: DU-145 prostate
[62] = test system: HS 578T breast
[63] = test system: MCF7 breast
[64] = test system: MDA-MB-231 breast
[65] = test system: MDA-MB-435
[66] = test system: MDA-N
[67] = test system: NCI/ADR-RES ovarian
[68] = test system: PC-3 prostate
[69] = test system: T-47D breast

CC(=O)N1CCC(=O)/C(=C/c2ccccc2)C1 was tested, and the TGI [1] was 69.6 µM, the TGI [2] was over 100000 nM and the TGI [3] was over 100 µM. For the same compound, the TGI [4] was 56.8 µM, the TGI [5] was 30 µM and the TGI [6] was over 100 µM. The TGI [7] was 66.2 µM, the TGI [8] was 30800 nM and the TGI [9] was over 100000 nM. It also gave a TGI [10] of over 100000 nM, a TGI [11] of 32.2 µM and a TGI [12] of 48.2 µM. For the same compound, the TGI [13] was 51.2 µM, the TGI [14] was over 100 µM and the TGI [15] was over 100 µM. The TGI [16] was 38.8 µM, the TGI [17] was 46.4 µM and the TGI [18] was over 100 µM. For the same compound, the TGI [19] was 51.6 µM, the TGI [20] was over 100 µM and the TGI [21] was 32.9 µM. For the same compound, the TGI [22] was 47200 nM, the TGI [23] was over 100000 nM and the TGI [24] was 58300 nM. The TGI [25] was over 100000 nM, the TGI [26] was over 100 µM and the TGI [27] was over 100 µM. It also gave a TGI [28] of over 100 µM, a TGI [29] of over 100000 nM and a TGI [30] of 93.5 µM. For the same compound, the TGI [31] was 37.8 µM, the TGI [32] was over 100 µM and the TGI [33] was 99.3 µM. The TGI [34] was over 100000 nM, the TGI [35] was 67600 nM and the TGI [36] was over 100 µM. For the same compound, the TGI [37] was 62.6 µM, the TGI [38] was over 100 µM and the TGI [39] was over 100000 nM. For the same compound, the TGI [40] was 38.3 µM, the TGI [41] was over 100000 nM and the TGI [42] was over 100 µM. For the same compound, the TGI [43] was 37.6 µM, the TGI [44] was over 100 µM and the TGI [45] was over 100000 nM. For the same compound, the TGI [46] was over 100 µM, the TGI [47] was 72.5 µM and the TGI [48] was 34.8 µM. It also gave a TGI [49] of over 100 µM, a TGI [50] of 34300 nM and a TGI [51] of over 100000 nM. For the same compound, the TGI [52] was 82700 nM, the TGI [53] was over 100 µM and the TGI [54] was over 100 µM.
With CCCOC(=O)CNC(=O)OC(C)(C)C the TGI [3] was over 100 µM, the TGI [4] was over 100 µM and the TGI [5] was over 100 µM. For the same compound, the TGI [55] was over 100 µM, the TGI [6] was over 100 µM and the TGI [7] was over 100 µM. It also gave a TGI [8] of over 100000 nM, a TGI [9] of over 100000 nM and a TGI [56] of over 100 µM. It also gave a TGI [10] of over 100000 nM, a TGI [11] of over 100 µM and a TGI [12] of over 100 µM. For the same compound, the TGI [57] was over 100000 nM, the TGI [13] was over 100 µM and the TGI [14] was over 100 µM. The TGI [15] was over 100 µM, the TGI [16] was over 100 µM and the TGI [17] was over 100 µM. The TGI [18] was over 100 µM, the TGI [19] was over 100 µM and the TGI [20] was over 100 µM. For the same compound, the TGI [21] was over 100 µM, the TGI [22] was over 100000 nM and the TGI [23] was over 100000 nM. The TGI [24] was over 100000 nM, the TGI [25] was over 100000 nM and the TGI [27] was over 100 µM. It also gave a TGI [28] of over 100 µM, a TGI [29] of over 100000 nM and a TGI [58] of over 100000 nM. It also gave a TGI [30] of over 100 µM, a TGI [31] of over 100 µM and a TGI [32] of over 100 µM. For the same compound, the TGI [33] was over 100 µM, the TGI [35] was over 100000 nM and the TGI [36] was over 100 µM. It also gave a TGI [37] of over 100 µM, a TGI [38] of over 100 µM and a TGI [39] of over 100000 nM. It also gave a TGI [59] of over 100000 nM, a TGI [40] of over 100 µM and a TGI [41] of over 100000 nM. It also gave a TGI [42] of over 100 µM, a TGI [44] of over 100 µM and a TGI [45] of over 100000 nM. It also gave a TGI [46] of over 100 µM, a TGI [47] of over 100 µM and a TGI [48] of over 100 µM. The TGI [49] was over 100 µM, the TGI [50] was over 100000 nM and the TGI [51] was over 100000 nM. It also gave a TGI [52] of over 100000 nM, a TGI [53] of over 100 µM and a TGI [54] of over 100 µM.
C/C(=N\NC(=S)N1CCCCCC1)c1ccccn1 was tested, and the GI50 [1] was 99.2 nM, the TGI [1] was 2.17 µM and 3.12 µM and the GI50 [2] was 163 nM. The TGI [2] was 2590 nM and 1570 nM, the GI50 [3] was under 18.8 nM and the TGI [3] was 6.46 µM and 2.49 µM. The TGI [4] was 5.45 µM and 2.73 µM, the TGI [60] was 1760 nM and the GI50 [5] was under 39.3 nM. For the same compound, the TGI [5] was 5.45 µM and 10.4 µM, the TGI [6] was 0.0286 µM and the TGI [7] was 1.38 µM and 4.44 µM. For the same compound, the TGI [8] was 138 nM and 29.8 nM, the TGI [9] was 1690 nM and 2130 nM and the GI50 [61] was 408 nM. For the same compound, the TGI [61] was 6.29 µM and 3.25 µM, the GI50 [56] was 53 nM and the TGI [56] was 1.84 µM and 3.34 µM. For the same compound, the GI50 [10] was 37.4 nM, the TGI [10] was 2030 nM and 1350 nM and the TGI [11] was 3.16 µM and 4.28 µM. For the same compound, the GI50 [12] was 49.7 nM, the TGI [12] was 1.99 µM and 4.43 µM and the TGI [57] was 185 nM. For the same compound, the GI50 [13] was 720 nM, the TGI [13] was 0.927 µM and 6.14 µM and the GI50 [14] was 38.1 nM. The TGI [14] was 2.4 µM and 3.98 µM, the GI50 [15] was 217 nM and the TGI [15] was 0.3 µM. For the same compound, the TGI [62] was 3.85 µM, the TGI [16] was 2.52 µM and 10.6 µM and the GI50 [17] was under 12.2 nM. The TGI [17] was 2.66 µM and 6.59 µM, the TGI [18] was 1.92 µM and 4.53 µM and the GI50 [19] was 68.8 nM. For the same compound, the TGI [19] was 0.517 µM and 5.16 µM, the TGI [21] was 4.37 µM and 1.37 µM and the TGI [22] was 190 nM and 405 nM. The GI50 [23] was 10.3 nM, the TGI [23] was 1560 nM and 740 nM and the GI50 [24] was 109 nM. For the same compound, the TGI [24] was 1060 nM and 687 nM, the GI50 [25] was 96.6 nM and the TGI [25] was 1170 nM and 1720 nM. For the same compound, the TGI [63] was 24.5 nM, the GI50 [64] was 147 nM and the TGI [64] was 5.31 µM and 9.96 µM. The GI50 [65] was 70.3 nM, the TGI [65] was 3920 nM and 1170 nM and the GI50 [66] was 169 nM. The TGI [66] was 1500 nM, the TGI [26] was 3.46 µM and > 31.9 µM and the GI50 [27] was 245 nM. For the same compound, the TGI [27] was 3.62 µM and 5.35 µM, the GI50 [28] was under 18.2 nM and the TGI [28] was 5.85 µM and 6.33 µM. For the same compound, the GI50 [29] was 42.1 nM, the TGI [29] was 1470 nM and 2220 nM and the GI50 [58] was 109 nM. The TGI [58] was 623 nM and 1390 nM, the TGI [67] was 3.32 µM and the TGI [30] was 0.172 µM. The GI50 [31] was under 41.2 nM, the TGI [31] was 2.52 µM and 3.25 µM and the GI50 [32] was under 16.5 nM. The TGI [32] was 2.67 µM and 3.98 µM, the TGI [33] was 3.48 µM and 4.57 µM and the GI50 [68] was 183 nM. The TGI [68] was 2900 nM and 2610 nM, the TGI [34] was 321 nM and 132 nM and the GI50 [35] was 117 nM. The TGI [35] was 2050 nM and 658 nM, the TGI [36] was 2.83 µM and the TGI [37] was 4.19 µM. For the same compound, the GI50 [38] was 13.7 nM, the TGI [38] was 2.3 µM and the GI50 [39] was 143 nM. The TGI [39] was 1740 nM and 2260 nM, the GI50 [59] was 69.4 nM and the TGI [59] was 569 nM and 1830 nM. For the same compound, the TGI [40] was 0.295 µM, the GI50 [41] was 20.9 nM and the TGI [41] was 1090 nM and 741 nM. The TGI [42] was 2.28 µM, the GI50 [43] was 24.6 nM and the TGI [43] was 4.31 µM and 5.6 µM. The GI50 [44] was 101 nM, the TGI [44] was 4.38 µM and 6.44 µM and the GI50 [45] was 277 nM. The TGI [45] was 1180 nM and 2540 nM, the GI50 [46] was 355 nM and the TGI [46] was 13.7 µM. For the same compound, the GI50 [48] was under 20.4 nM, the TGI [48] was 1.85 µM and 4.74 µM and the TGI [69] was 8.43 µM and 7.58 µM. For the same compound, the TGI [49] was 8.56 µM and 7.56 µM, the GI50 [50] was under 13.1 nM and the TGI [50] was 1240 nM and 1290 nM. For the same compound, the TGI [51] was 830 nM and 969 nM, the TGI [52] was 330 nM and 268 nM and the GI50 [53] was 134 nM. The TGI [53] was 4.01 µM and 4.33 µM and the GI50 [54] was 14.1 nM.
